Assay results: ChEMBL document CHEMBL1139701, “A bioisosteric approach to the discovery of indole carbinol androgen receptor ligands” (Bioorg Med Chem Lett, 2006)

Target: T1, Androgen receptor (Rattus norvegicus, UniProt P15207)
T1 sequence (P15207 whole entry): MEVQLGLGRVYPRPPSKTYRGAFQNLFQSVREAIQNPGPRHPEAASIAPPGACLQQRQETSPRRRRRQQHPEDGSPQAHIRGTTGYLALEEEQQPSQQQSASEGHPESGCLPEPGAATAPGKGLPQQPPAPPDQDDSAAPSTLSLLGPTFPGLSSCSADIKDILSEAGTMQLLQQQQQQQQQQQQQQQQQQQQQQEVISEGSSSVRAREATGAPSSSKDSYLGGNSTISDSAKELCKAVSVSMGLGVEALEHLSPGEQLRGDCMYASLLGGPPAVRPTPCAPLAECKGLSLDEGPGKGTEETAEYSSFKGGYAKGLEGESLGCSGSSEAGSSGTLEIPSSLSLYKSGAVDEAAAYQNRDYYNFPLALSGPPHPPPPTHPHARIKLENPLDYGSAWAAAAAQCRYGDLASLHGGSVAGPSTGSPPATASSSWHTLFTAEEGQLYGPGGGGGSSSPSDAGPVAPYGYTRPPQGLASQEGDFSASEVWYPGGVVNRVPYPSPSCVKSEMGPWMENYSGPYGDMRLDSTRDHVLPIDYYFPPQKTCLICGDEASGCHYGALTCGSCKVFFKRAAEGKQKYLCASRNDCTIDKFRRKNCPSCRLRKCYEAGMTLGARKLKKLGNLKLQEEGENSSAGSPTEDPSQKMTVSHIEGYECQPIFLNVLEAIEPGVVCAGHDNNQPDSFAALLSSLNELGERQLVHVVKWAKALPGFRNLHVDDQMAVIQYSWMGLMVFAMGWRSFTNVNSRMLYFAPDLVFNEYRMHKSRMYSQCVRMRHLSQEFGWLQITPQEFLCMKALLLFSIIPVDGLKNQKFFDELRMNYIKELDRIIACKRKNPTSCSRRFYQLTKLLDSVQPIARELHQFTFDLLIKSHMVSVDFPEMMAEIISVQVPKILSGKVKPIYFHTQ
Test: Displacement of [3H]R1881 from rat androgen receptor

Compound | IC50 [µM]
CC(O)(COC(=O)c1ccccc1)c1cc2cc(C#N)c(C(F)(F)F)cc2[nH]1 (centres undefined) | 0.48
CC(O)(COC(=O)c1ccccc1C(F)(F)F)c1cc2cc(NC(=O)C(F)(F)F)c(C(F)(F)F)cc2[nH]1 (centres undefined) | 0.15
CC(C)(C)c1ccc(C(=O)OCC(C)(O)c2cc3cc([N+](=O)[O-])c(C(F)(F)F)cc3[nH]2)cc1 (centres undefined) | 3.6
CC(O)(COC(=O)c1ccc([N+](=O)[O-])cc1)c1cc2cc([N+](=O)[O-])c(C(F)(F)F)cc2[nH]1 (centres undefined) | 1.6
CC(O)(CS(=O)(=O)c1ccc(F)cc1)c1cc2cc(C#N)c(C(F)(F)F)cc2[nH]1 (centres undefined) | > 6.9
Cc1ccc(C(=O)OCC(C)(O)c2cc3cc([N+](=O)[O-])c(C(F)(F)F)cc3[nH]2)cc1 (centres undefined) | 3
CC(O)(CSc1ccc(Cl)c(Cl)c1)c1cc2cc([N+](=O)[O-])c(C(F)(F)F)cc2[nH]1 (centres undefined) | 1
CC(O)(CSc1ccccc1)c1cc2cc(Cl)c(C(F)(F)F)cc2[nH]1 (centres undefined) | 0.22
COc1ccc(C(=O)OCC(C)(O)c2cc3cc([N+](=O)[O-])c(C(F)(F)F)cc3[nH]2)cc1 (centres undefined) | 6.4
CC(O)(CSc1ccc(Cl)cc1)c1cc2cc(Cl)c(C(F)(F)F)cc2[nH]1 (centres undefined) | 0.18
CN(C)c1ccc(C(=O)OCC(C)(O)c2cc3cc([N+](=O)[O-])c(C(F)(F)F)cc3[nH]2)cc1 (centres undefined) | 2.6
CC(O)(COC(=O)c1ccc(F)cc1)c1cc2cc(C#N)c(C(F)(F)F)cc2[nH]1 (centres undefined) | 1.2

Target: T2, Androgen receptor (Rattus norvegicus) (UniProt P15207)
T2 sequence (whole entry): T1 sequence (P15207 whole entry)
Test: Displacement of [3H]R1881 from rat androgen receptor at 30 uM relative to control

inhibition [%] | Compound
< 50 | COC(=O)c1ccc2[nH]c(C(C)(O)CSc3ccc(Cl)cc3)cc2c1 (centres undefined)
< 50 | CC(O)(CSc1ccc(Cl)cc1)c1cc2ccccc2[nH]1 (centres undefined)
